Measurements as given in PubChem BioAssay AID330 (DTP/NCI, 2004).
“And” between values parts separate entries of the source, which are not always exact repeats. Identical values can stand only once. Inconclusive results and toxic doses are left out.

Tested on: P388 leukemia ip, CD2F1 mice, survival T/C
Experiment: NCI In Vivo Anticancer Drug Screen. Data for tumor model P388 Leukemia (intraperitoneal) in CD2F1 (CDF1) mice
Settings: endpoint: median survival time, higher = longer survival
Method in brief: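 Mice carrying the transplanted tumor received test compound or vehicle. Survival was recorded in each group, and the value is the treated-group measurement divided by that of the vehicle-treated control group.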

[1] = dose: 50.0 mg/kg/injection, schedule: Q01DX005 (ip), vehicle: saline with Tween-80
[2] = dose: 100.0 mg/kg/injection, schedule: Q01DX005 (ip), vehicle: saline with Tween-80
[3] = dose: 200.0 mg/kg/injection, schedule: Q01DX005 (ip), vehicle: saline with Tween-80
[4] = dose: 60.0 mg/kg/injection, schedule: Q01DX005 (ip), vehicle: saline with Tween-80
[5] = dose: 120.0 mg/kg/injection, schedule: Q01DX005 (ip), vehicle: saline with Tween-80
[6] = dose: 240.0 mg/kg/injection, schedule: Q01DX005 (ip), vehicle: saline with Tween-80
[7] = dose: 50.0 mg/kg/injection, schedule: Q01DX009 (ip), vehicle: saline
[8] = dose: 100.0 mg/kg/injection, schedule: Q01DX009 (ip), vehicle: saline
[9] = dose: 200.0 mg/kg/injection, schedule: Q01DX009 (ip), vehicle: saline
[10] = dose: 25.0 mg/kg/injection, schedule: Q01DX005 (ip), vehicle: Klucel (hydroxypropylcellulose) (HPC)
[11] = dose: 50.0 mg/kg/injection, schedule: Q01DX005 (ip), vehicle: Klucel (hydroxypropylcellulose) (HPC)
[12] = dose: 100.0 mg/kg/injection, schedule: Q01DX005 (ip), vehicle: Klucel (hydroxypropylcellulose) (HPC)
[13] = dose: 200.0 mg/kg/injection, schedule: Q01DX005 (ip), vehicle: Klucel (hydroxypropylcellulose) (HPC)
[14] = dose: 50.0 mg/kg/injection, schedule: Q01DX009 (ip), vehicle: saline with Tween-80
[15] = dose: 100.0 mg/kg/injection, schedule: Q01DX009 (ip), vehicle: saline with Tween-80
[16] = dose: 200.0 mg/kg/injection, schedule: Q01DX009 (ip), vehicle: saline with Tween-80
[17] = dose: 25.0 mg/kg/injection, schedule: Q01DX009 (ip), vehicle: saline with Tween-80
[18] = dose: 6.25 mg/kg/injection, schedule: Q01DX009 (ip), vehicle: saline with Tween-80
[19] = dose: 12.5 mg/kg/injection, schedule: Q01DX009 (ip), vehicle: saline with Tween-80
[20] = dose: 6.25 mg/kg/injection, schedule: Q01DX009 (ip), vehicle: Klucel (hydroxypropylcellulose) (HPC)
[21] = dose: 12.5 mg/kg/injection, schedule: Q01DX009 (ip), vehicle: Klucel (hydroxypropylcellulose) (HPC)
[22] = dose: 25.0 mg/kg/injection, schedule: Q01DX009 (ip), vehicle: Klucel (hydroxypropylcellulose) (HPC)
[23] = dose: 50.0 mg/kg/injection, schedule: Q01DX005 (ip), vehicle: saline
[24] = dose: 100.0 mg/kg/injection, schedule: Q01DX005 (ip), vehicle: saline

Cc1c2sc3ccccc3[nH]c2nc2[nH]c3ccccc3sc12
T/C [1]: 108 % of control | T/C [2]: 116 % of control | T/C [3]: 108 % of control

CSC(=S)n1nc(-c2ccccc2)c(N=Nc2ccc(Br)cc2)c1-c1ccccc1
T/C (dose: 100.0 mg/kg/injection, schedule: Q04DX002 (ip), vehicle: Klucel (hydroxypropylcellulose) (HPC)): 100 % of control | T/C (dose: 200.0 mg/kg/injection, schedule: Q04DX002 (ip), vehicle: Klucel (hydroxypropylcellulose) (HPC)): 97 % of control | T/C (dose: 400.0 mg/kg/injection, schedule: Q04DX002 (ip), vehicle: Klucel (hydroxypropylcellulose) (HPC)): 101 % of control

Clc1ccc([C@H]2N[C@@H]2c2ccccn2)cc1
T/C [4]: 94 % of control | T/C [5]: 103 % of control | T/C [6]: 94 % of control

COc1ccc(CCN2C(=O)C(=O)N(c3ccc([N+](=O)[O-])cc3)C2=O)cc1OC
T/C [7]: 91 % of control | T/C [8]: 94 % of control | T/C [9]: 94 % of control

CNC(=S)N(C)C
T/C [7]: 98 % of control | T/C [8]: 99 % of control | T/C [9]: 109 % of control

O=C(NNC(=O)C12CC3CC(CC(C3)C1)C2)C12CC3CC(CC(C3)C1)C2
T/C [10]: 105 % of control | T/C [11]: 102 % of control | T/C [12]: 105 % of control | T/C [13]: 105 % of control

CCSC(CCC(NC(C)=O)C(=O)O)SCC (centres undefined)
T/C [11]: 98 % of control | T/C [12]: 99 % of control | T/C [13]: 91 % of control

Fc1ccc2[nH]c3c(c2c1)-c1ncncc1CC3
T/C [11]: 101 % of control | T/C [12]: 100 % of control | T/C [13]: 101 % of control

COc1ccc(C(O)C2CCCN(c3ccccc3)S2(=O)=O)cc1 (centres undefined)
T/C (dose: 100.0 mg/kg/injection, schedule: Q01DX001 (ip), vehicle: saline with Tween-80): 101 % of control | T/C (dose: 200.0 mg/kg/injection, schedule: Q01DX001 (ip), vehicle: saline with Tween-80): 94 % of control | T/C (dose: 400.0 mg/kg/injection, schedule: Q01DX001 (ip), vehicle: saline with Tween-80): 98 % of control

Nc1ccc2c3c(cccc13)C(=O)N(CCCBr)C2=O
T/C [4]: 103 % of control | T/C [5]: 113 % of control | T/C [6]: 107 % of control

O=C1CCN(Cc2ccccc2)C(=O)N1
T/C [14]: 100 % of control | T/C [15]: 105 % of control | T/C [16]: 100 % of control

CC(C)=CCCC(C)=C(C#N)C#N
T/C (dose: 100.0 mg/kg/injection, schedule: Q04DX003 (ip), vehicle: saline with Tween-80): 100 % of control

CC(=O)Oc1ccc2c(c1)c1c(OC(C)=O)c(N(C)C(C)=O)cc(OC(C)=O)c1n2C
T/C [7]: 100 % of control | T/C [8]: 86 % of control | T/C [9]: 100 % of control

CCOC(=O)C(CCl)C(C(=O)OCC)C(=O)OCC (centres undefined)
T/C [17]: 117 % of control | T/C [14]: 110 % of control | T/C [15]: 112 % of control

COC(=O)N1CC2[C@H](O)[C@H](O)C1ON2c1ccccc1 (some centres undefined)
T/C (dose: 60.0 mg/kg/injection, schedule: Q01DX005 (ip), vehicle: Klucel (hydroxypropylcellulose) (HPC)): 101 % of control | T/C (dose: 120.0 mg/kg/injection, schedule: Q01DX005 (ip), vehicle: Klucel (hydroxypropylcellulose) (HPC)): 94 % of control | T/C (dose: 240.0 mg/kg/injection, schedule: Q01DX005 (ip), vehicle: Klucel (hydroxypropylcellulose) (HPC)): 93 % of control

Nc1c(S(=O)(=O)O)cc(Nc2ccc(S(=O)(=O)O)c(Nc3nc(Cl)nc(Cl)n3)c2)c2c1C(=O)c1ccccc1C2=O
T/C (dose: 60.0 mg/kg/injection, schedule: Q01DX005 (ip), vehicle: saline): 118 % of control | T/C (dose: 120.0 mg/kg/injection, schedule: Q01DX005 (ip), vehicle: saline): 110 % of control | T/C (dose: 240.0 mg/kg/injection, schedule: Q01DX005 (ip), vehicle: saline): 110 % of control

O=C(Oc1ccc[nH]c1=O)c1ccccc1
T/C (dose: 37.5 mg/kg/injection, schedule: Q01DX009 (ip), vehicle: saline): 108 % of control and 98 % of control | T/C (dose: 75.0 mg/kg/injection, schedule: Q01DX009 (ip), vehicle: saline): 101 % of control and 105 % of control | T/C (dose: 150.0 mg/kg/injection, schedule: Q01DX009 (ip), vehicle: saline): 107 % of control | T/C (dose: 300.0 mg/kg/injection, schedule: Q01DX009 (ip), vehicle: saline): 101 % of control and 110 % of control | T/C (dose: 600.0 mg/kg/injection, schedule: Q01DX009 (ip), vehicle: saline): 101 % of control and 107 % of control

COc1cc(OC)c(NC(=O)Oc2cc(C)c(Br)c(C)c2)cc1Cl
T/C [14]: 91 % of control | T/C [15]: 95 % of control | T/C [16]: 108 % of control

[Fe]=[Se]
T/C [4]: 96 % of control | T/C [5]: 86 % of control | T/C [6]: 107 % of control

O=C1C(=O)C(Cl)=C(Cl)C(Cl)=C1Cl
T/C [18]: 100 % of control and 95 % of control | T/C [19]: 93 % of control | T/C [17]: 100 % of control and 98 % of control

CN1CCN(CC2C(=O)C3CCC2C3)CC1 (centres undefined)
T/C [1]: 93 % of control | T/C [2]: 101 % of control

N#Cc1cc([N+](=O)[O-])cnc1Sc1ncccn1
T/C [20]: 108 % of control | T/C [21]: 104 % of control | T/C [22]: 90 % of control

Cc1ccc(C(=O)c2ccc[n+](C)c2)cc1
T/C [23]: 100 % of control | T/C [24]: 101 % of control

CC(CO)c1cc2c(cc1O)[C@@]1(C)CCCC(C)(C)[C@@H]1CC2 (some centres undefined)
T/C [10]: 99 % of control | T/C [11]: 102 % of control | T/C [12]: 89 % of control | T/C [13]: 89 % of control and 93 % of control | T/C (dose: 400.0 mg/kg/injection, schedule: Q01DX005 (ip), vehicle: Klucel (hydroxypropylcellulose) (HPC)): 88 % of control

O=C(O)c1cc2cc3c(cc2c2ccccc12)OCO3
T/C [11]: 100 % of control | T/C [12]: 106 % of control | T/C [13]: 108 % of control

C/C(=C\c1ccc([N+](=O)[O-])cc1)C(=O)NC(C)C
T/C (dose: 50.0 mg/kg/injection, schedule: Q01DX005 (ip), vehicle: other): 102 % of control | T/C (dose: 100.0 mg/kg/injection, schedule: Q01DX005 (ip), vehicle: other): 93 % of control | T/C (dose: 200.0 mg/kg/injection, schedule: Q01DX005 (ip), vehicle: other): 105 % of control

CNC(=O)OCc1c(COC(=O)NC)c2n(c1C)CS(=O)(=O)C2
T/C (dose: 25.0 mg/kg/injection, schedule: Q01DX005 (ip), vehicle: saline with Tween-80): 122 % of control | T/C [2]: 204 % of control and 211 % of control

Cc1ccc(C(=O)[Se][Se]C(=O)c2ccc(C)cc2)cc1
T/C [18]: 98 % of control | T/C [19]: 117 % of control | T/C [17]: 104 % of control and 112 % of control

CCCCCCCCCCCCCCCC1C(N)C(=O)N(C)N1C (centres undefined)
T/C [14]: 86 % of control | T/C [15]: 95 % of control

Nc1nc(N)c2cc(Sc3cccc(C(F)(F)F)c3)ccc2n1
T/C [15]: 172 % of control | T/C [16]: 94 % of control

COc1nc(N)c2ncn(C3CCCO3)c2n1 (centres undefined)
T/C (dose: 12.5 mg/kg/injection, schedule: Q01DX001 (ip), vehicle: Klucel (hydroxypropylcellulose) (HPC)): 100 % of control | T/C (dose: 25.0 mg/kg/injection, schedule: Q01DX001 (ip), vehicle: Klucel (hydroxypropylcellulose) (HPC)): 106 % of control

C#CC1(O)CC2c3ccc(OC)cc3CCC2(C)C1 (centres undefined)
T/C [20]: 117 % of control | T/C [21]: 105 % of control | T/C [22]: 112 % of control

[CH3][Pb]([CH3])([CH3])[Cl]
T/C (dose: 0.75 mg/kg/injection, schedule: Q01DX009 (ip), vehicle: saline): 90 % of control and 92 % of control | T/C (dose: 1.5 mg/kg/injection, schedule: Q01DX009 (ip), vehicle: saline): 90 % of control and 93 % of control and 97 % of control | T/C (dose: 3.0 mg/kg/injection, schedule: Q01DX009 (ip), vehicle: saline): 94 % of control (2×) and 97 % of control | T/C (dose: 6.0 mg/kg/injection, schedule: Q01DX009 (ip), vehicle: saline): 95 % of control

CCC(=O)OCCN(CCOC(=O)CC)C(=O)C(C)OC(=O)CC (centres undefined)
T/C (dose: 25.0 mg/kg/injection, schedule: Q01DX005 (ip), vehicle: saline): 105 % of control | T/C [23]: 110 % of control | T/C [24]: 105 % of control | T/C (dose: 200.0 mg/kg/injection, schedule: Q01DX005 (ip), vehicle: saline): 110 % of control

CC(O)CCc1nc2ccccc2[nH]1 (centres undefined)
T/C [1]: 95 % of control | T/C [2]: 100 % of control | T/C [3]: 95 % of control
